Data from patent publication EP4603105A1, “PHARMACEUTICAL COMPOSITION CONTAINING CYCLIC COMPOUND HAVING SELECTIVE KRAS INHIBITORY EFFECT AGAINST HRAS AND NRAS” (CHUGAI SEIYAKU KABUSHIKI KAISHA, priority 2022, dated 2024).
One block for each molecule: values may come before it. *1 amine or outer side, *2 acyl side, *3 side chain or, on linkers, in order; H or OH if unused. Where a SMILES comes first, the peptide text is derived from it. Bridges are numbered along the chain shown (N, C = ends). [ ]: non-standard residue; d: D form. The star is where a group is joined. hPhe(3-Cl-4-CF3) = N[C@@H](CCc1ccc(C(F)(F)F)c(Cl)c1)C(=O)O; X19 = O=C([C@H](Cc1ccc(C(F)(F)F)cc1)N(CCCF)[*:1])[*:2]; X45 = CCCN([C@@H](CC1CCC(F)(F)CC1)C(=O)[*:2])[*:1]; NMeGly(cPent) = CN[C@H](C(=O)O)C1CCCC1; NMeD = CN[C@@H](CC(=O)O)C(=O)O; NMeL = CN[C@@H](CC(C)C)C(=O)O; Morpholide = C1CN(*)CCO1; NMeA = CN[C@@H](C)C(=O)O; Ac5c = NC1(C(=O)O)CCCC1; Aze = O=C(O)[C@@H]1CCN1; Sar = CNCC(=O)O

Tests used:
[1] = system: human lung cancer strain NCI-H441; assay type: cell-based
In short: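 Signal came from […] measured per well once the reagent was added. Beforehand, cells were cultured at 37°C and 5% carbon dioxide on a compound series serially diluted in dimethyl sulfoxide.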

[2] = target: GDP-bound NRAS wild-type protein (Homo sapiens, UniProt P01111); experiment: Binding to NRAS by surface plasmon resonance (SPR), KD and KD ratio to KRAS; conditions: ratio of the KD value with respect to GDP-bound NRAS wild-type protein to the KD value with respect to KRAS
GDP-bound NRAS wild-type protein, sequence (P01111 whole entry): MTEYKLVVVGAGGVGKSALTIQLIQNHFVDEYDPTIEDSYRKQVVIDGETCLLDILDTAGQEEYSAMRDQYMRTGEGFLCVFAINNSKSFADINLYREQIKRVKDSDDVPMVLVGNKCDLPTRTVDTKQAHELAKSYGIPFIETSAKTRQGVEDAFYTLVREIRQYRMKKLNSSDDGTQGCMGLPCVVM
In short: (§1)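 Measured at 30°C: SPR with GDP-loaded, E. coli-expressed biotin-Avi RAS captured (~100–300 RU), ascending 75 s compound injections, HBS pH 7.4 with GDP, MgCl2, 4% DMSO. KD from 1:1 fit.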

HRAS wild-type protein = HRAS wild-type protein (Homo sapiens, UniProt P01112); experiment: Binding to HRAS by surface plasmon resonance (SPR), KD and KD ratio to KRAS; conditions: ratio of the KD value with respect to HRAS wild-type protein to the KD value with respect to KRAS
HRAS wild-type protein, sequence (P01112 whole entry): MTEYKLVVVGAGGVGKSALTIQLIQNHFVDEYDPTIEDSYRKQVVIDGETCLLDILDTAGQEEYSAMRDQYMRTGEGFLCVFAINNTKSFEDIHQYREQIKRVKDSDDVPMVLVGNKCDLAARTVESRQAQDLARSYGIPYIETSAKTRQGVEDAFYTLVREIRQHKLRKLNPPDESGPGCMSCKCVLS
In short: as §1

Compound: CCC(CC)[C@@H]1NC(=O)[C@H](CC(C)C)N(C)C(=O)C[C@@H](C(=O)N2CCOCC2)N(C)C(=O)[C@H](C2CCCC2)N(C)C(=O)C2(CCCC2)NC(=O)[C@@H]2CCCN2C(=O)[C@H](CCc2cc(F)c(C(F)(F)F)c(F)c2)NC(=O)CN(C)C(=O)[C@H](Cc2ccc(C(F)(F)F)cc2)N2CCCCC[C@@H](C2=O)N(C)C(=O)CN(C)C1=O [PP0523]
IC50 [1]: 734 nM | NRAS /KRAS [2]: A (a compound having 10 or more and less than 20 is denoted as A) | HRAS /KRAS (HRAS wild-type protein): B (a compound having 3 or more and less than 10 is denoted as B)

Compound: CC[C@H](C)[C@@H]1NC(=O)[C@H](CC(C)C)N(C)C(=O)C[C@@H](C(=O)N2CCOCC2)N(C)C(=O)[C@H](C2CCCC2)N(C)C(=O)C2(CCCC2)NC(=O)[C@@H]2CCCN2C(=O)[C@H](CCc2ccc(C(F)(F)F)c(Cl)c2)NC(=O)CN(C)C(=O)[C@H](Cc2ccc(C(F)(F)F)cc2)N(CCCF)C(=O)CN(C)C(=O)CN(C)C1=O [PP0524] ([NMeL]I[Sar][Sar][X19][Sar][hPhe(3-Cl-4-CF3)]P[Ac5c][NMeGly(cPent)][NMeD]-Morpholide; lactam N-11)
IC50 [1]: 4.8 nM | NRAS /KRAS [2]: B (a compound having 3 or more and less than 10 is denoted as B) | HRAS /KRAS (HRAS wild-type protein): C (A compound having a KD ratio of 0.1 or more and less than 3 is denoted as C)

Compound: CC[C@H](C)[C@@H]1NC(=O)[C@H](CC(C)C)N(C)C(=O)C[C@@H](C(=O)N2CCOCC2)N(C)C(=O)[C@H](C2CCCC2)N(C)C(=O)C2(CCCC2)NC(=O)[C@@H]2CCCN2C(=O)[C@H](CCc2ccc(C(F)(F)F)c(Cl)c2)NC(=O)CN(C)C(=O)[C@H](Cc2ccc(C(F)(F)F)cc2)N(CCCF)C(=O)[C@@H]2CCN2C(=O)[C@H](C)N(C)C1=O [PP0525] ([NMeL]I[NMeA][Aze][X19][Sar][hPhe(3-Cl-4-CF3)]P[Ac5c][NMeGly(cPent)][NMeD]-Morpholide; lactam N-11)
IC50 [1]: 2.1 nM | NRAS /KRAS [2]: C (A compound having a KD ratio of 0.1 or more and less than 3 is denoted as C) | HRAS /KRAS (HRAS wild-type protein): B (a compound having 3 or more and less than 10 is denoted as B)

Compound: CC[C@H](C)[C@@H]1NC(=O)[C@H](CC(C)C)N(C)C(=O)C[C@@H](C(=O)N2CCOCC2)N(C)C(=O)[C@H](C2CCCC2)N(C)C(=O)C2(CCCC2)NC(=O)[C@@H]2CCCN2C(=O)[C@H](CCc2ccc(C(F)(F)F)c(Cl)c2)NC(=O)CN(C)C(=O)[C@H](Cc2ccc(OC)cc2)N2CCCC[C@@H](C2=O)N(C)C(=O)CN(C)C1=O [PP0534]
IC50 [1]: 16.7 nM | NRAS /KRAS [2]: B (a compound having 3 or more and less than 10 is denoted as B) | HRAS /KRAS (HRAS wild-type protein): B (a compound having 3 or more and less than 10 is denoted as B)

Compound: CC[C@H](C)[C@@H]1NC(=O)[C@H](CC(C)C)N(C)C(=O)C[C@@H](C(=O)N2CCOCC2)N(C)C(=O)[C@H](C2CCCC2)N(C)C(=O)C2(CCCC2)NC(=O)[C@@H]2CCCN2C(=O)[C@H](CCc2ccc(C(F)(F)F)c(Cl)c2)NC(=O)CN(C)C(=O)[C@H](Cc2ccc(OC(F)(F)F)cc2)N2CCCC[C@@H](C2=O)N(C)C(=O)CN(C)C1=O [PP0536]
IC50 [1]: 21.8 nM | NRAS /KRAS [2]: B (a compound having 3 or more and less than 10 is denoted as B) | HRAS /KRAS (HRAS wild-type protein): B (a compound having 3 or more and less than 10 is denoted as B)

Compound: CC[C@H](C)[C@@H]1NC(=O)[C@H](CC(C)C)N(C)C(=O)C[C@@H](C(=O)N2CCOCC2)N(C)C(=O)[C@H](C2CCCC2)N(CC)C(=O)C2(CCCC2)NC(=O)[C@@H]2CCCN2C(=O)[C@H](CCc2cc(F)c(C(F)(F)F)c(F)c2)NC(=O)CN(C)C(=O)[C@H](Cc2ccc(C(F)(F)F)cc2)N2CCCC[C@@H](C2=O)N(C)C(=O)CN(C)C1=O [PP0538]
IC50 [1]: 78 nM | NRAS /KRAS [2]: B (a compound having 3 or more and less than 10 is denoted as B) | HRAS /KRAS (HRAS wild-type protein): B (a compound having 3 or more and less than 10 is denoted as B)

Compound: CC[C@H](C)[C@@H]1NC(=O)[C@H](CC(C)C)N(C)C(=O)C[C@@H](C(=O)N2CCOCC2)N(CC)C(=O)[C@H](C2CCCC2)N(C)C(=O)C2(CCCC2)NC(=O)[C@@H]2CCCN2C(=O)[C@H](CCc2cc(F)c(C(F)(F)F)c(F)c2)NC(=O)CN(C)C(=O)[C@H](Cc2ccc(C(F)(F)F)cc2)N2CCCC[C@@H](C2=O)N(C)C(=O)CN(C)C1=O [PP0539]
IC50 [1]: 6.3 nM | NRAS /KRAS [2]: B (a compound having 3 or more and less than 10 is denoted as B) | HRAS /KRAS (HRAS wild-type protein): B (a compound having 3 or more and less than 10 is denoted as B)

Compound: CC[C@H](C)[C@@H]1NC(=O)[C@H](CC(C)C)N(C)C(=O)C[C@@H](C(=O)N2CCOCC2)N(C)C(=O)[C@H](C2CCCC2)NC(=O)C2(CCCC2)NC(=O)[C@@H]2CCCN2C(=O)[C@H](CCc2cc(F)c(C(F)(F)F)c(F)c2)NC(=O)CN(C)C(=O)[C@H](Cc2ccc(C(F)(F)F)cc2)N2CCCC[C@@H](C2=O)N(C)C(=O)CN(C)C1=O [PP0540]
IC50 [1]: 766 nM | NRAS /KRAS [2]: B (a compound having 3 or more and less than 10 is denoted as B) | HRAS /KRAS (HRAS wild-type protein): B (a compound having 3 or more and less than 10 is denoted as B)

Continued, in another order:

IC50 [1]: 83 nM
Compound: CC(C)C[C@H]1C(=O)N[C@@H](C2CCC2)C(=O)N(C)CC(=O)N(C)[C@H]2CCCCCN(C2=O)[C@@H](Cc2ccc(C(F)(F)F)cc2)C(=O)N(C)CC(=O)N[C@@H](CCc2cc(F)c(C(F)(F)F)c(F)c2)C(=O)N2CCC[C@H]2C(=O)NC2(CCCC2)C(=O)N(C)[C@@H](C2CCCC2)C(=O)N(C)[C@H](C(=O)N2CCOCC2)CC(=O)N1C [PP0522]
NRAS /KRAS [2]: B (a compound having 3 or more and less than 10 is denoted as B) | HRAS /KRAS (HRAS wild-type protein): B (a compound having 3 or more and less than 10 is denoted as B)

IC50 [1]: 6.6 nM
Compound: CCCN1C(=O)CN(C)C(=O)CN(C)C(=O)[C@H]([C@@H](C)CC)NC(=O)[C@H](CC(C)C)N(C)C(=O)C[C@@H](C(=O)N2CCOCC2)N(C)C(=O)[C@H](C2CCCC2)N(C)C(=O)C2(CCCC2)NC(=O)[C@@H]2CCCN2C(=O)[C@H](CCc2ccc(C(F)(F)F)c(Cl)c2)NC(=O)CN(C)C(=O)[C@@H]1CC1CCC(F)(F)CC1 [PP0526] ([NMeL]I[Sar][Sar][X45][Sar][hPhe(3-Cl-4-CF3)]P[Ac5c][NMeGly(cPent)][NMeD]-Morpholide; lactam N-11)
NRAS /KRAS [2]: B (a compound having 3 or more and less than 10 is denoted as B) | HRAS /KRAS (HRAS wild-type protein): C (A compound having a KD ratio of 0.1 or more and less than 3 is denoted as C)

IC50 [1]: 5.7 nM
Compound: CCCN1C(=O)[C@@H]2CCN2C(=O)[C@H](C)N(C)C(=O)[C@H]([C@@H](C)CC)NC(=O)[C@H](CC(C)C)N(C)C(=O)C[C@@H](C(=O)N2CCOCC2)N(C)C(=O)[C@H](C2CCCC2)N(C)C(=O)C2(CCCC2)NC(=O)[C@@H]2CCCN2C(=O)[C@H](CCc2ccc(C(F)(F)F)c(Cl)c2)NC(=O)CN(C)C(=O)[C@@H]1CC1CCC(F)(F)CC1 [PP0527] ([NMeL]I[NMeA][Aze][X45][Sar][hPhe(3-Cl-4-CF3)]P[Ac5c][NMeGly(cPent)][NMeD]-Morpholide; lactam N-11)
NRAS /KRAS [2]: C (A compound having a KD ratio of 0.1 or more and less than 3 is denoted as C) | HRAS /KRAS (HRAS wild-type protein): C (A compound having a KD ratio of 0.1 or more and less than 3 is denoted as C)

IC50 [1]: 8.9 nM
Compound: CC[C@H](C)[C@@H]1NC(=O)[C@H](CC(C)C)N(C)C(=O)C[C@@H](C(=O)N2CCOCC2)N(C)C(=O)[C@H](C2CCCC2)N(C)C(=O)C2(CCCC2)NC(=O)[C@@H]2CCCN2C(=O)[C@H](CCc2ccc(C(F)(F)F)c(Cl)c2)NC(=O)CN(C)C(=O)[C@H](Cc2ccc(Cl)cc2)N2CC=CC[C@@H](C2=O)N(C)C(=O)CN(C)C1=O [PP0533]
NRAS /KRAS [2]: C (A compound having a KD ratio of 0.1 or more and less than 3 is denoted as C) | HRAS /KRAS (HRAS wild-type protein): C (A compound having a KD ratio of 0.1 or more and less than 3 is denoted as C)

IC50 [1]: 55.4 nM
Compound: CC[C@H](C)[C@@H]1NC(=O)[C@H](CC(C)C)N(C)C(=O)C[C@@H](C(=O)N2CCOCC2)N(C)C(=O)[C@H](C2CCCC2)N(C)C(=O)C2(CCCC2)NC(=O)[C@@H]2CCCN2C(=O)[C@H](CCc2ccc(C(F)(F)F)c(Cl)c2)NC(=O)CN(C)C(=O)[C@H](Cc2ccc(OC)cc2)N2CC=CC[C@@H](C2=O)N(C)C(=O)CN(C)C1=O [PP0535]
NRAS /KRAS [2]: C (A compound having a KD ratio of 0.1 or more and less than 3 is denoted as C) | HRAS /KRAS (HRAS wild-type protein): B (a compound having 3 or more and less than 10 is denoted as B)

IC50 [1]: 197 nM
Compound: CC[C@H](C)[C@@H]1NC(=O)[C@H](CC(C)C)N(C)C(=O)C[C@@H](C(=O)N2CCOCC2)N(C)C(=O)[C@H](C2CCCC2)N(C)C(=O)C2(CCCC2)NC(=O)[C@@H]2CCCN2C(=O)[C@H](CCc2ccc(C(F)(F)F)c(Cl)c2)NC(=O)CN(C)C(=O)[C@H](Cc2ccc(OC(F)(F)F)cc2)N2CC=CC[C@@H](C2=O)N(C)C(=O)CN(C)C1=O [PP0537]
NRAS /KRAS [2]: C (A compound having a KD ratio of 0.1 or more and less than 3 is denoted as C) | HRAS /KRAS (HRAS wild-type protein): C (A compound having a KD ratio of 0.1 or more and less than 3 is denoted as C)
